Measured values reported in the supplement of paper PMC13386468.

What was measured:
Assay in all cases: IC50 for competition of protein binding to Kinobeads
Conditions in all cases: assay detail: Kinobeads competition in P. falciparum blood-stage lysate
[1] = target: UniProt Q8IDV0
[2] = target: UniProt Q8I3T1
[3] = target: UniProt Q8II43
[4] = target: UniProt Q8I3F1
[5] = target: UniProt Q8I5C4
[6] = target: UniProt C6KTC7
[7] = target: UniProt Q8IJ34
[8] = target: UniProt Q8I5A4
[9] = target: UniProt Q8IJI4
[10] = target: UniProt C0H4C5
[11] = target: UniProt Q8I1Q9
[12] = target: UniProt Q8I526
[13] = target: UniProt Q8I4Q5
[14] = target: UniProt Q8IKZ8
[15] = target: UniProt Q8I5B2
[16] = target: UniProt Q8IDN9
[17] = target: UniProt Q8IDG3
[18] = target: UniProt O96260
[19] = target: UniProt C0H586
[20] = target: UniProt Q8IIJ6
Sequence of UniProt Q8IIJ6 (Q8IIJ6 whole entry): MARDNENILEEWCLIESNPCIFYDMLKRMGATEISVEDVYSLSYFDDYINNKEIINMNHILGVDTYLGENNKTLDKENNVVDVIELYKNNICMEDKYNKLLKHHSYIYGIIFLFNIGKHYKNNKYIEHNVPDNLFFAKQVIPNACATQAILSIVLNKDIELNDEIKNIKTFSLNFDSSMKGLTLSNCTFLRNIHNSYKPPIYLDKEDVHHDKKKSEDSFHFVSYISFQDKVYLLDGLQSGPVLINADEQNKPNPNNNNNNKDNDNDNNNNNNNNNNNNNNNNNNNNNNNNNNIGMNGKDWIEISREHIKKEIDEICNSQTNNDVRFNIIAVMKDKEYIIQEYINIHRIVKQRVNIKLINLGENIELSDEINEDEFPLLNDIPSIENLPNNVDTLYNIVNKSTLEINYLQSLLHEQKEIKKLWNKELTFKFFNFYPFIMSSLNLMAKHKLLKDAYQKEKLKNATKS

[21] = target: UniProt Q8IHZ9
Sequence of UniProt Q8IHZ9 (Q8IHZ9 whole entry): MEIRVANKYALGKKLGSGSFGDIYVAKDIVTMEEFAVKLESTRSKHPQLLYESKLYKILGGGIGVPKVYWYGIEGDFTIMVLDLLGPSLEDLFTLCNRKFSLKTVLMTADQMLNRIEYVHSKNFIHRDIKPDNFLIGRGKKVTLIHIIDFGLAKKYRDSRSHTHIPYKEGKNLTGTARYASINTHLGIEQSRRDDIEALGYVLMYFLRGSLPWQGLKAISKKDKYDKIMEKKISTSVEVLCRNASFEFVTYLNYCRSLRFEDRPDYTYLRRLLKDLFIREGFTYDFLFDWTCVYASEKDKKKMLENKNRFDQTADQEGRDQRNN

[22] = target: UniProt O77390
[23] = target: UniProt O96153
[24] = target: UniProt Q8I2X0
[25] = target: UniProt Q8ILQ3
[26] = target: UniProt C6KSY0
[27] = target: UniProt Q8IIV2
[28] = target: UniProt O77310
Sequence of UniProt O77310 (O77310 whole entry): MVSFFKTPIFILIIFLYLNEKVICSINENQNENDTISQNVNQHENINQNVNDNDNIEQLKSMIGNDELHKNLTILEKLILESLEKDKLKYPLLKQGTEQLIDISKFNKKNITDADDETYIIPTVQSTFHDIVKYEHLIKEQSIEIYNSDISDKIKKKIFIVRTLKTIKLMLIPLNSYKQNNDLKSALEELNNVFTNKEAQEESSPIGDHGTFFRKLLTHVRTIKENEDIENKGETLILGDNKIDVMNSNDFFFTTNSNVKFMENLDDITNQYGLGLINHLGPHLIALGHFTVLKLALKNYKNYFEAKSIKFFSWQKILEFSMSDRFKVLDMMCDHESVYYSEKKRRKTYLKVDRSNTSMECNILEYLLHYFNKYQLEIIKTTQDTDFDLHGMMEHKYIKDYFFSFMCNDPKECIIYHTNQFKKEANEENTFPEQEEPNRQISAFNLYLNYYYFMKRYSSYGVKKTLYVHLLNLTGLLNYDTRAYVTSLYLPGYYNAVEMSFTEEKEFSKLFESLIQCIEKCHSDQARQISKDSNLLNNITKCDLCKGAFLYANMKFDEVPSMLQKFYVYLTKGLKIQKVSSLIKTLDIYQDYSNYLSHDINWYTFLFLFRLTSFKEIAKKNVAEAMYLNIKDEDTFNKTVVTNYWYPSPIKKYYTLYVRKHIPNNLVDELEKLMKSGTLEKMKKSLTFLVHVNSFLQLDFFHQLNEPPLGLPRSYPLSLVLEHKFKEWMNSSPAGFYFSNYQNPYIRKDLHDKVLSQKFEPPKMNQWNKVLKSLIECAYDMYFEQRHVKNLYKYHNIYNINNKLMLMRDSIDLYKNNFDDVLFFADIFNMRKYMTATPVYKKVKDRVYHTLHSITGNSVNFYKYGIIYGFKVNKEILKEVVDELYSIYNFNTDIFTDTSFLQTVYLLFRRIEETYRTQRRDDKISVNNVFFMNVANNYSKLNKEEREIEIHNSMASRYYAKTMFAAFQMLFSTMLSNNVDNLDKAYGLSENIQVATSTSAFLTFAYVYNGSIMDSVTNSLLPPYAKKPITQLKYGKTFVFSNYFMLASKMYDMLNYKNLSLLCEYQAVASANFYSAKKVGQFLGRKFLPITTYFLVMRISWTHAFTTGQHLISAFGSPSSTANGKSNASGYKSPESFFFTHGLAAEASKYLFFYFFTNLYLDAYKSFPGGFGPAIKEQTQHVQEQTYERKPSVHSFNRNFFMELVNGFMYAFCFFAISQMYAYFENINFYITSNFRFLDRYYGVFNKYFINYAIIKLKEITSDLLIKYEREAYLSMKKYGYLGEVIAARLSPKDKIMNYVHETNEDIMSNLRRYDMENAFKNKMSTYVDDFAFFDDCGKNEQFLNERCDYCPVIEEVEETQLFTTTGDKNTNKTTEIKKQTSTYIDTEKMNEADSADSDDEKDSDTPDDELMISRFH

[29] = target: UniProt Q8IJJ0
[30] = target: UniProt C6KTB9
[31] = target: UniProt Q8IBN5
[32] = target: UniProt Q8IAX6
[33] = target: UniProt C0H5J9
[34] = target: UniProt Q8II73
[35] = target: UniProt C6KT18
[36] = target: UniProt Q8II24
[37] = target: UniProt Q8IKS4
[38] = target: UniProt C0H4Y6
[39] = target: UniProt Q8I4X0
Sequence of UniProt Q8I4X0 (Q8I4X0 whole entry): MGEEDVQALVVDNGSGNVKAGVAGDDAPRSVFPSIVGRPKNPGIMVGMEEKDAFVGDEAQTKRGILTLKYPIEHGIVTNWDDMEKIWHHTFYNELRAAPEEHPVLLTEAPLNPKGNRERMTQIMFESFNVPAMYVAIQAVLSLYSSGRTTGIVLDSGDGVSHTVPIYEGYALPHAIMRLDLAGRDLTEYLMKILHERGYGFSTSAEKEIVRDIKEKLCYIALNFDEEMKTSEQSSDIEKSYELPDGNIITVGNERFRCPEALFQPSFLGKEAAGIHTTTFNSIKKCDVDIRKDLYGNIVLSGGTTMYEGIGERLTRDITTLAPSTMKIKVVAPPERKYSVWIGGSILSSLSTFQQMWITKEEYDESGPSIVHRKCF

[40] = target: UniProt Q8IIV8
[41] = target: UniProt Q8ILI6
Sequence of UniProt Q8ILI6 (Q8ILI6 whole entry): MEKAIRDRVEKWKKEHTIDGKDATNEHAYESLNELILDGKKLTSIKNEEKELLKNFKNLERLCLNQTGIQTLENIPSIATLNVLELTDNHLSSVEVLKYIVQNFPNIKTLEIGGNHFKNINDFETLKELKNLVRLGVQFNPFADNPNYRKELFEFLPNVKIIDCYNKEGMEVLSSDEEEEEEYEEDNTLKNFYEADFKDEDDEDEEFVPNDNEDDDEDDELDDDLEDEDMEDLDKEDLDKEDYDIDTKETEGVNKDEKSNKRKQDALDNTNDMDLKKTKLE

[42] = target: UniProt Q8I512
[43] = target: UniProt Q8IIC9
[44] = target: UniProt Q8I6U4
Sequence of UniProt Q8I6U4 (Q8I6U4 whole entry): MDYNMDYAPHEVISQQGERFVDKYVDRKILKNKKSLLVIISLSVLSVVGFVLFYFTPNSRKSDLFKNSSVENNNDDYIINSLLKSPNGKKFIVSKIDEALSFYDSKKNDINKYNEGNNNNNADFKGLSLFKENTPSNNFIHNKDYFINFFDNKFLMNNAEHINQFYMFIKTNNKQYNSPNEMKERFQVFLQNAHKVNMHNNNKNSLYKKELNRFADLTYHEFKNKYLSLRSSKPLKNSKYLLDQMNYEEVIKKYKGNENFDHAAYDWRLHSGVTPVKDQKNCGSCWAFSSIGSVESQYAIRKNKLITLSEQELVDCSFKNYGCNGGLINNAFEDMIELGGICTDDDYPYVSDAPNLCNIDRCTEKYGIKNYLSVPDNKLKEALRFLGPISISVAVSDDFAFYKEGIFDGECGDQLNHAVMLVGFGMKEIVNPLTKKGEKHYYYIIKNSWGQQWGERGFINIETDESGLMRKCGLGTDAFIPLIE

[45] = target: UniProt O77361
[46] = target: UniProt C6KT96
[47] = target: UniProt O97249
Sequence of UniProt O97249 (O97249 whole entry): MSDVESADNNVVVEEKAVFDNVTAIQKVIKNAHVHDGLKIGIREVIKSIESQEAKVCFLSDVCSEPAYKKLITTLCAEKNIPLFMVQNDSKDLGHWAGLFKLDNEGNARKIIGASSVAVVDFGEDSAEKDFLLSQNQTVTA

[48] = target: UniProt Q8IIB7
[49] = target: UniProt P27362
Sequence of UniProt P27362 (P27362 whole entry): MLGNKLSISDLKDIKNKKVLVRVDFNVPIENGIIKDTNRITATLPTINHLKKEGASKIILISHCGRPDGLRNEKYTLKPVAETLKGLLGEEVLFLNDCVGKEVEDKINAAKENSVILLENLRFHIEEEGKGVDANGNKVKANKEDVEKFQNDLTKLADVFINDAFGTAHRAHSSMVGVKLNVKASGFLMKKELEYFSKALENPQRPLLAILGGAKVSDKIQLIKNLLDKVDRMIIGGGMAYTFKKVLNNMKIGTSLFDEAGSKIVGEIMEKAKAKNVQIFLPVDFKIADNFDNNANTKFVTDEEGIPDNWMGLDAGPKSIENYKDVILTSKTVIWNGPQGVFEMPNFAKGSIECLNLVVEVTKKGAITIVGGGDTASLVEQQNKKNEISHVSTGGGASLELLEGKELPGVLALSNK

[50] = target: UniProt Q8IDR5
[51] = target: UniProt O96198

Measured: IC50
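Further: native unpurified kinases from lysate captured on beads bearing immobilized kinase inhibitors, with bead-bound kinases quantified by mass spectrometry across compound doses.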

O=c1[nH]c2ccc(Cl)cc2c(NC2CN3CCC2CC3)c1-c1nc2ccccc2[nH]1 (stereo unspecified) [CHIR-124]
> 20 µM: all assays above
